Assays:
[1] = system: BE(2)-C cells; experiment: Pulse-chase analysis of doxorubicin secretion/retention; assay type: cell-based, human; conditions: 12 h pre-treatment, 1 µg/ml doxorubicin 3 h, washout, relative to t0
Method: To test whether HDAC10 inhibition prolonged the retention of doxorubicin, we used a pulse-chase approach in which BE(2)-C cells were pre-treated over night with HDAC6/10 inhibitors and then loaded with high concentrations of doxorubicin for 3 h (1 µg/ml). After doxorubicin washout, HDAC6/10 or HDAC6 inhibitors were re-added (t0), and intracellular doxorubicin fluorescence was measured at t0, as well as 3 h (t3h) and 6 h (t6h) after doxorubicin removal (Fig. 5h–k). […] In summary, secretion of doxorubicin was slowed down in case of HDAC6/10 inhibition but not by specific HDAC6 inhibition alone.
(§1) For flow cytometric quantification of intracellular doxorubicin after HDAC6/10 inhibition, BE(2)-C, SK-N-AS, IMR-32, HAP1 wild type and HDAC10 knockout cells were seeded in 6-well dishes at a density of 1.5 ∗ 10^5 cells/well (BE(2)-C and SK-N-AS, HAP1) and 3 ∗ 10^5 cells/well (IMR-32). Cells were treated with 25 ng/ml, 50 ng/ml, 100 ng/ml or 1 µg/ml doxorubicin, respectively, for 3–48 h (see respective figure legend). Where indicated, cells were co-treated with HDAC6/10 or lysosomal inhibitors. In case of co-treatment with vacuolin-1, vacuolin-1 was directly added to cells under doxorubicin treatment 1 h or 24 h prior to analysis. Flow cytometric quantification of intracellular doxorubicin after HDAC6, HDAC10 or P-glycoprotein knockdown in BE(2)-C cells was performed 5 days (P-glycoprotein) or 6 days (HDAC6/10) after transfection with siRNA. To that end, cells were seeded 3–4 days after transfection into 6-well dishes at 1.5 ∗ 10^5 cells per well and treated with 100 ng/ml doxorubicin +/− HDAC6/10 and lysosomal inhibitors for the last 24 h. After doxorubicin treatment, BE(2)-C, SK-N-AS, IMR-32 and HAP1 cells were washed with ice-cold RPMI w/o phenol-red and detached using Trypsin/EDTA for 3 minutes at 37 °C. Cells were centrifuged, resuspended in RPMI w/o phenol red and doxorubicin fluorescence was quantified on a BD FACSCanto II platform using the PE filter setting.

[2] = target: T1, HDAC10 (Homo sapiens, UniProt Q969S8); experiment: In-cell target engagement (NanoBRET) assay, NanoLuc-HDAC10; assay type: binding
T1 construct: NanoLuc®-HDAC10 FL Fusion Vector; host or cells: HeLa cells, stably transfected
T1 sequence (Q969S8 1-669): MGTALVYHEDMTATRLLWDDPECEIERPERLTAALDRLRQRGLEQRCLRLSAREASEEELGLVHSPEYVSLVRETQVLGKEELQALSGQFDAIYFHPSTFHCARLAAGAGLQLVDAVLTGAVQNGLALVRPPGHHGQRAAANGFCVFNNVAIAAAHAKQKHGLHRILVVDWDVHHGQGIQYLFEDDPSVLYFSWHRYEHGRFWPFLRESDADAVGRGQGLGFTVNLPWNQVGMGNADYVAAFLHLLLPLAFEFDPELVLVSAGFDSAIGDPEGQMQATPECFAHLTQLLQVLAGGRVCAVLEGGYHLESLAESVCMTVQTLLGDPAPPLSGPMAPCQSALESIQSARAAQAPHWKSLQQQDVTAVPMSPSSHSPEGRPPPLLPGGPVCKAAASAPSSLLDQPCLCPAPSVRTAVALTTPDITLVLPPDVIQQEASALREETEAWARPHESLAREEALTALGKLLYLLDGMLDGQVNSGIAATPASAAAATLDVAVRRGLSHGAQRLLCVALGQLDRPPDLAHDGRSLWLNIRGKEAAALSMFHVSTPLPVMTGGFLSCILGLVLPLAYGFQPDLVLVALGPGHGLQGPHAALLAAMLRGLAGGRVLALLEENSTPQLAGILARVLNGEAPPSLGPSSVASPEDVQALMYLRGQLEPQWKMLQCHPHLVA
Description: We next investigated if accumulation of lysosomes was also affected by inhibition of HDAC6 and HDAC10, respectively. […] Since no bona fide downstream target protein of HDAC10 has been described to date, we performed an in-cell target engagement (NanoBRET) assay that measures competitive displacement of a fluorescently-labeled tracer from NanoLuc® Luciferase coupled HDAC10 enzyme. […] To exclude that lysosomal accumulation after treatment with HDAC6/10 inhibitors was caused by off-target inhibition of class I HDACs, we treated BE(2)-C cells with 1 mM class I HDAC inhibitor valproic acid (VPA).
HeLa cells, stabily transfected with NanoBRET plasmids NanoLuc®-HDAC6 FL Fusion Vector and NanoLuc®-HDAC10 FL Fusion Vector (Promega, Madison, WI, USA) were seeded at 20.000 cells/well in white 96 well plates. Without further incubation, tracer (0.3 µM) and drugs were added in separate steps and plates were placed in a tissue culture incubator for 2 h. For NanoBRET quantification, plates were put at room temperature for 10 minutes. Nanoglow substrate, diluted in OptiMEM without phenol red, was added and measured within 10 minutes in an OPTIMA plate reader (460 nm emission for donor and 610LP filter for acceptor). The BRET signal was calculated by the ratio of acceptor signal and donor signal.

[3] = system: BE(2)-C cells; experiment: Alkaline single cell gel electrophoresis assay (comet assay); assay type: cell-based, human; conditions: 18 h
Method: BE(2)-C cells were treated with the HDAC6/10 inhibitor tubastatin A alone or in combination with the genotoxic drug doxorubicin (100 ng/ml doxorubicin, 7.5 µM tubastatin) for 18 h. Untreated cell aliquots and cells irradiated with 5 Gy (^137Cs radiation source, dose rate of 1 Gy min^−1) were used as negative and positive controls, respectively. Cells were subsequently analyzed by the alkaline comet assay as previously described[68],[69] with some modifications. In brief, the cells were mixed with 0.7% low-melting temperature agarose (Biozym), plated on two-well slides (Trevigen), and subsequently lysed overnight. Single cell electrophoresis was performed at 4 °C. Analysis of DNA damage was accomplished by fluorescence microscopy using a fully automated cell scanning system Metafer-4 (Metasystems) as described in[70]. DNA damage was assessed as “Tail DNA in %”. Statistical evaluation of two differently treated cell aliquots was performed with the Mann Whitney test using GraphPad Prism version 5.04 for Windows.

[4] = system: proliferating human fibroblasts; experiment: Cell viability, automated trypan blue exclusion, fibroblasts; assay type: cell-based; conditions: 7.5 µM tubastatin A
Method: Adherent cell lines were trypsinized and cells were pooled with corresponding supernatant, centrifuged and resuspended in 1.5 ml cell culture media. Cell viability was measured by automated trypan blue staining with the Vi-Cell XR Cell Viability Analyzer from Beckman Coulter (Krefeld, Germany).

[5] = system: SK-N-AS cells; experiment: Flow cytometric quantification of intracellular doxorubicin accumulation, SK-N-AS; assay type: cell-based, human; conditions: 100 ng/ml doxorubicin +/− 7.5 µM tubastatin A, 48 h
Method: as §1

affinity towards HDAC10 (NanoBRET tracer displacement) [2]: strong affinity towards HDAC10
SMILES: CN1CCc2c(c3ccccc3n2Cc2ccc(C(=O)NO)cc2)C1 [tubastatin A]
retention of intracellular doxorubicin 3 h and 6 h after doxorubicin removal [1]: retained higher levels of intracellular doxorubicin | DSBs in comet assays, addition to doxorubicin treatment ([3]; tubastatin A 7.5 µM + doxorubicin 100 ng/ml): substantially increased doxorubicin induced DSBs | DSBs in comet assays, single treatment ([3]; tubastatin A 7.5 µM or doxorubicin 100 ng/ml): increased DSBs only trend-wise | cell death in proliferating fibroblasts, combination with 100 ng/ml doxorubicin, 24 h or 48 h [4]: did not induce significant cell death | doxorubicin accumulation, SK-N-AS [5]: increased accumulation of doxorubicin

From PMC6030077, “Dual role of HDAC10 in lysosomal exocytosis and DNA repair promotes neuroblastoma chemoresistance” (Scientific Reports, 2018)
